Measured values reported in paper PMC4503722, “Novel Phenotypic Outcomes Identified for a Public Collection of Approved Drugs from a Publicly Accessible Panel of Assays” (PLoS ONE, 2015).
Like-named read-outs stand apart in the source and are kept apart here.

Key:
HeLa cells = assay: cells; format: cell-based; details: HeLa, read-out: CellCycle G2/M
DLD-1 = assay: cells; format: cell-based
NCI-H716 cells = assay: cells; format: cell-based, Human
[1] = system: nuclear β-catenin in C2C12 cells; assay: cells; format: cell-based
hp70S6K1 (RPS6KB1) = biological target: T1, hp70S6K1 (RPS6KB1) (Homo sapiens, UniProt P23443); assay: Cerep LANCE kinase assay hp70S6K1 (S1 assay 31); format: biochemical; details: read-out: p70S6K1
T1 construct: purchased Cerep (LANCE kinase assay platform, contract assay)
T1 sequence (P23443 whole entry): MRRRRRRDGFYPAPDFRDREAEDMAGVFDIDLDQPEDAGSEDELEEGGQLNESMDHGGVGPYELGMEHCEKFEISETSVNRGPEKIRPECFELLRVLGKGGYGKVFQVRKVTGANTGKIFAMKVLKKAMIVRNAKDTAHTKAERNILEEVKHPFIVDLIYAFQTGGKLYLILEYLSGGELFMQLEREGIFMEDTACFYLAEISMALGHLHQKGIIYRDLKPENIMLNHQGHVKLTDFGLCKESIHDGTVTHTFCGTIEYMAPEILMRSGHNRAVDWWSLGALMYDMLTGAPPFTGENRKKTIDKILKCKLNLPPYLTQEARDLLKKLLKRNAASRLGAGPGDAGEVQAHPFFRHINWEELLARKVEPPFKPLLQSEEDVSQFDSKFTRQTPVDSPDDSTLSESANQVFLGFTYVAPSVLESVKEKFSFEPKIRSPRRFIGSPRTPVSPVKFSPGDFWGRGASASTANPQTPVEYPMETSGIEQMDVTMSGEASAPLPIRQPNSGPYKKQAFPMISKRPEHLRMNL

hKDR = biological target: T2, hKDR (Homo sapiens, UniProt P35968); assay: Cerep LANCE kinase assay hKDR (S1 assay 32); format: biochemical; details: read-out: KDR
T2 construct: purchased Cerep (LANCE kinase assay platform, contract assay)
T2 sequence (P35968 20-1356): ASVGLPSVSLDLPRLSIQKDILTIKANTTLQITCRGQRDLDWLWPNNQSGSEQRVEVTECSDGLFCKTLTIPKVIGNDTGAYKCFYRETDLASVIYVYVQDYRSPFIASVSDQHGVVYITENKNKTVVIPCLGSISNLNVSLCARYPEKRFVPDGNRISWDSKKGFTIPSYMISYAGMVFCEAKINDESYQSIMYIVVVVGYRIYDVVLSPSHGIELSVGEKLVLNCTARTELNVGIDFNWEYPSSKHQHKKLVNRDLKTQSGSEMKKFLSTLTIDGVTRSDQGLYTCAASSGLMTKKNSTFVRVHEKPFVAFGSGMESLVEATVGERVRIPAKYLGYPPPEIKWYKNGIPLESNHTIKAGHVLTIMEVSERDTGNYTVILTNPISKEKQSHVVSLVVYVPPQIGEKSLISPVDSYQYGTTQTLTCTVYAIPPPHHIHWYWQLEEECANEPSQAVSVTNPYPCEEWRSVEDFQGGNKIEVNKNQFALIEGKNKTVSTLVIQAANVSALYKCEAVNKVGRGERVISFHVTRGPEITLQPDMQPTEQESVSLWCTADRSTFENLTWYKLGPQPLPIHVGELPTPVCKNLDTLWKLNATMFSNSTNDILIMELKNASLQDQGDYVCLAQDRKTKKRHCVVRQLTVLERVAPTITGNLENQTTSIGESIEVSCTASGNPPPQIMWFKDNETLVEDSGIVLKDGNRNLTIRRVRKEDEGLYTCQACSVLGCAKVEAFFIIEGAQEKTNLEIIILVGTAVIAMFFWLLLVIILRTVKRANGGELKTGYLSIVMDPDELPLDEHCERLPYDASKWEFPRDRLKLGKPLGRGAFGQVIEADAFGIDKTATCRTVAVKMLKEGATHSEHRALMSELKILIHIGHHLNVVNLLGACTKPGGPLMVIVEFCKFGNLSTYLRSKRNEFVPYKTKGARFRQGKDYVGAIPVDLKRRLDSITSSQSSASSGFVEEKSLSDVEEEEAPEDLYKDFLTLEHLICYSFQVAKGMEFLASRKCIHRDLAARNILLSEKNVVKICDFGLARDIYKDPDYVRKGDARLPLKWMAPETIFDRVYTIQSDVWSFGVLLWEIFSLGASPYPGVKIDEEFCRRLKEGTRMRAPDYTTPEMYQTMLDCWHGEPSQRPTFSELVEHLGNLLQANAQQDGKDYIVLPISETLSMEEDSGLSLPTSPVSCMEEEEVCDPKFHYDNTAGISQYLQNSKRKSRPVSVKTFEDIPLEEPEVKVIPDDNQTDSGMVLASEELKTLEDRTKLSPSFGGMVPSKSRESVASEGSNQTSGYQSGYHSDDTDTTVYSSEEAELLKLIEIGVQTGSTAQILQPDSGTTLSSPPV

[2] = system: HCT116 cells treated with a GSK3β inhibitor; assay: cells; format: cell-based
hJAK2 = biological target: T3, hJAK2 (Homo sapiens, UniProt O60674); assay: Cerep LANCE kinase assay hJAK2 (S1 assay 33); format: biochemical; details: read-out: JAK2
T3 construct: purchased Cerep (LANCE kinase assay platform, contract assay)
T3 sequence (O60674 whole entry): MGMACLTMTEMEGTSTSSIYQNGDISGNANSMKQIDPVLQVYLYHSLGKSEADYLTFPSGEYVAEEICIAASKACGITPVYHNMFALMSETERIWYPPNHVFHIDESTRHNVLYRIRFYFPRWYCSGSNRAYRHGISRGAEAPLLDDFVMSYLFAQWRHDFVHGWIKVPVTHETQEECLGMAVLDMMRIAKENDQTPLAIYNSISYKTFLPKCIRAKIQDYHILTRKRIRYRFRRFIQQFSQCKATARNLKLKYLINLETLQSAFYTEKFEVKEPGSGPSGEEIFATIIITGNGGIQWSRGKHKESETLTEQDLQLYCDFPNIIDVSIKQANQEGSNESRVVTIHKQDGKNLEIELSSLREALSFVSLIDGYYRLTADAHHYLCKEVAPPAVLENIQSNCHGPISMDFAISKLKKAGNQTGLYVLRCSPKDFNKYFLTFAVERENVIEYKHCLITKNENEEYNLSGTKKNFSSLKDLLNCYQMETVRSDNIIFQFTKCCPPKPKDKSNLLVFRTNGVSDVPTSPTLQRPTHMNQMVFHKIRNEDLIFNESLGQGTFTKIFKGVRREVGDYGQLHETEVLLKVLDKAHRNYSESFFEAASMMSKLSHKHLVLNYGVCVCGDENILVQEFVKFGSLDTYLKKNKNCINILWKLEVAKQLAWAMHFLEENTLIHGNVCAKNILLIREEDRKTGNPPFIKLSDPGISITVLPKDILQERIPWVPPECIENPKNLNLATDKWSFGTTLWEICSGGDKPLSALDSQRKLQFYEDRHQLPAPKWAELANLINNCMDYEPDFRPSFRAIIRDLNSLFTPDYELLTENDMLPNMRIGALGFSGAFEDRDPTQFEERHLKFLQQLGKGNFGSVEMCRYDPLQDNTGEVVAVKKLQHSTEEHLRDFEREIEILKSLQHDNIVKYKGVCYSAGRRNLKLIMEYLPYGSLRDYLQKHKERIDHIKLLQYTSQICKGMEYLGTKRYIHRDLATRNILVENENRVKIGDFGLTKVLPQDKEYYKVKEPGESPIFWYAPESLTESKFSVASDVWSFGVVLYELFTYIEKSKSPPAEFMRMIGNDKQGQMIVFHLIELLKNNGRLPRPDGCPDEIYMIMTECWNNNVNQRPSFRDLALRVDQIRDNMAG

HCT116 = assay: cells; format: cell-based
[3] = system: endothelial tube formation in co-cultures of ECFCs and ADSCs treated with VEGF; assay: cells; format: cell-based, human
SW480 = assay: cells; format: cell-based
hGSK3b = biological target: T4, hGSK3b (Homo sapiens, UniProt P49841); assay: Cerep LANCE kinase assay hGSK3b (S1 assay 34); format: biochemical; details: read-out: GSK3b
T4 construct: purchased Cerep (LANCE kinase assay platform, contract assay)
T4 sequence (P49841 whole entry): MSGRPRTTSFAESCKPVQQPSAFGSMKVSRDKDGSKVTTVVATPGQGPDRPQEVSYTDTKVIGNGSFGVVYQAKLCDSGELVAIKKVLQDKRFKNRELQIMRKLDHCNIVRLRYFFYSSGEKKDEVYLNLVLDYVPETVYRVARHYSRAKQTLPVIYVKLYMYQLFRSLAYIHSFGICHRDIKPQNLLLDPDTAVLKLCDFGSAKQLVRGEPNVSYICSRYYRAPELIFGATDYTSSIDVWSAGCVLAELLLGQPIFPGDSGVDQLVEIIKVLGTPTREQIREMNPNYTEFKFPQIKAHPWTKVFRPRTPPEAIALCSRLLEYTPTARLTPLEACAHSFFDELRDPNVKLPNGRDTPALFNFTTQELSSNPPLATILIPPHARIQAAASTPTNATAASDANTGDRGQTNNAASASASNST

hFLT3 = biological target: T5, hFLT3 (Homo sapiens, UniProt P36888); assay: Cerep LANCE kinase assay hFLT3 (S1 assay 35); format: biochemical; details: read-out: FLT3
T5 construct: purchased Cerep (LANCE kinase assay platform, contract assay)
T5 sequence (P36888 27-993): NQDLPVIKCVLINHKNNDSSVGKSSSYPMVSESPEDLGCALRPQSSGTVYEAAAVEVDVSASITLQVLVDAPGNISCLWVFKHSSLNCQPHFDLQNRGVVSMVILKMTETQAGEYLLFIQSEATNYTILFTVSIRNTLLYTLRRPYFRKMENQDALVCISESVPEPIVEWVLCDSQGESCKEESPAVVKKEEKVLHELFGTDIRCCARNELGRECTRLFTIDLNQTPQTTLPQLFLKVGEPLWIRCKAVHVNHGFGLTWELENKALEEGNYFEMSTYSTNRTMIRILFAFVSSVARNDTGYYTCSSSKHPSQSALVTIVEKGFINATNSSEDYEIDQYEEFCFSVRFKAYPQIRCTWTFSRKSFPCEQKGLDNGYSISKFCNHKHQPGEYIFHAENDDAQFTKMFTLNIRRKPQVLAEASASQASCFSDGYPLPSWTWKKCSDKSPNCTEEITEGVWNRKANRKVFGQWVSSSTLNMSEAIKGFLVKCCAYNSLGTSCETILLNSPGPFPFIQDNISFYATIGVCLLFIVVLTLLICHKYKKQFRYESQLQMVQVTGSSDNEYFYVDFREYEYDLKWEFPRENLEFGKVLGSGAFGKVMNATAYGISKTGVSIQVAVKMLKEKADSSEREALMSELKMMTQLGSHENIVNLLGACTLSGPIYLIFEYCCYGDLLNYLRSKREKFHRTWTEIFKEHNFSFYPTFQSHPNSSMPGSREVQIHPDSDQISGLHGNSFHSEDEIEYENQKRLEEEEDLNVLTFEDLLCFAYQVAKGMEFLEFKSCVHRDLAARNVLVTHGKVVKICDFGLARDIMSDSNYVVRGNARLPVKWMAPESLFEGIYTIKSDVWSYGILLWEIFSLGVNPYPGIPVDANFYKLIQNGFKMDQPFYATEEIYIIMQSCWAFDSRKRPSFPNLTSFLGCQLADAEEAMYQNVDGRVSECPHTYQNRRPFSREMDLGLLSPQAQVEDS

INS-1E cells = assay: cells; format: cell-based, rat
[4] = Mus musculus, C2C12, read-out: Wnt Pathway
[5] = Homo sapiens, HCT-116, read-out: Basal_Viability ATP HCT116
[6] = Homo sapiens, SW480, read-out: Basal_Viability ATP SW480
[7] = Homo sapiens, HCT-116, read-out: GSK3b inh pretreated_Viability ATP HCT116
[8] = basal, read-out: Basal_Viability ATP DLD-1
[9] = IC50 / EC50, NCI-H716, read-out: GLP 1 Secretion
[10] = IC50 / EC50, C2C12 beta-catenin translocation, read-out: Wnt Pathway
[11] = GSK3b inhibitor pretreated, read-out: GSK3b inh pretreated_Viability ATP HCT116
[12] = basal, read-out: Basal_Viability ATP HCT116
[13] = IC50 / EC50, endothelial tube area, ADSC/ECFC co-culture, read-out: Anti-Angiogenesis
[14] = basal, read-out: Basal_Viability ATP SW480
[15] = IC50 / EC50, INS-1E, read-out: Insulin Secretion

With CCc1nc(N)nc(N)c1-c1ccc(Cl)cc1 [pyrimethamine, reference compound] the EC50 (HeLa cells; Homo sapiens) was over 10 µM, the IC50 (DLD-1; Homo sapiens, DLD-1, 72 h, read-out: DLD-1 viab. IC50) was over 20 µM and the EC50 (NCI-H716 cells; Homo sapiens, NCI-H716, read-out: GLP1 sec. EC50) was over 10 µM. The EC50 [1, 4] was 67.7 nM, the EC50 ([1]; Mus musculus, C2C12, read-out: Wnt pot. EC50) was 68 nM and the IC50 (hp70S6K1 (RPS6KB1); kinase assay) was over 20 µM. For the same compound, the IC50 (hKDR; kinase assay) was over 20 µM, the IC50 ([2]; Homo sapiens, HCT-116, 72 h, read-out: HCT-116 (GSK3β) viab. IC50) was over 20 µM and the IC50 (hJAK2; kinase assay) was over 20 µM. For the same compound, the IC50 (HCT116; Homo sapiens, HCT-116, 72 h, read-out: HCT-116 viab. IC50) was 18.2 µM, the IC50 (HCT116; [5]) was 18.2 µM and the IC50 ([3]; Homo sapiens, read-out: Anti-Angio IC50) was over 10 µM. The IC50 (SW480; Homo sapiens, SW480, 72 h, read-out: SW480 viab. IC50) was 12.5 µM, the IC50 (SW480; [6]) was 12.5 µM and the IC50 (hGSK3b; kinase assay) was over 20 µM. The IC50 (hFLT3; kinase assay) was over 20 µM and the EC50 (INS-1E cells; Rattus norvegicus, INS-1E, read-out: Ins. sec. EC50) was over 10 µM.
Compound COc1cc(-c2ccc(=O)[nH]n2)ccc1OC(F)F [Zardaverine] has an EC50 (HeLa cells; Homo sapiens) of over 10 µM, an IC50 (DLD-1; Homo sapiens, DLD-1, read-out: Basal_Viability ATP DLD-1) of over 20 µM and an EC50 (NCI-H716 cells; Homo sapiens, NCI-H716, read-out: GLP 1 Secretion) of over 10 µM. It also gave an EC50 [1, 4] of over 10000 nM, an IC50 (hp70S6K1 (RPS6KB1); kinase assay) of over 20 µM and an IC50 (hKDR; kinase assay) of over 20 µM. For the same compound, the IC50 [2, 7] was over 20 µM, the IC50 (hJAK2; kinase assay) was over 20 µM and the IC50 (HCT116; [5]) was over 20 µM. The IC50 ([3]; Homo sapiens, read-out: Anti-Angiogenesis) was 1.22 µM, the IC50 (SW480; [6]) was over 20 µM and the IC50 (hGSK3b; kinase assay) was over 20 µM. It also gave an IC50 (hFLT3; kinase assay) of over 20 µM and an EC50 (INS-1E cells; Rattus norvegicus, INS-1E, read-out: Insulin Secretion) of over 10 µM.
In the case of C[n+]1c2cc(N)ccc2cc2ccc(N)cc21 [Acriflavinium chloride], the EC50 (HeLa cells; S2 Table, 20 = no response at highest concentration) is reported as over 10 µM, the IC50 (DLD-1; basal, DLD-1, read-out: Basal_Viability ATP DLD-1) is reported as 4.03 µM and the EC50 (NCI-H716 cells; S2 Table, module primary assay, 20 / 20.1 codes per legend, read-out: GLP 1 Secretion) is reported as over 10 µM. For the same compound, the EC50 ([1]; read-out: Wnt Pathway) was 1600 nM, the IC50 (hp70S6K1 (RPS6KB1); kinase assay) was 6.57 µM and the IC50 (hKDR; kinase assay) was over 20 µM. It also gave an IC50 ([2]; HCT116 pretreated with GSK3b inhibitor, read-out: GSK3b inh pretreated_Viability ATP HCT116) of 4.36 µM, an IC50 (hJAK2; kinase assay) of over 20 µM and an IC50 (HCT116; basal, HCT116, read-out: Basal_Viability ATP HCT116) of 10.3 µM. The IC50 ([3]; S2 Table, module primary assay, 20 = no response at highest concentration, 20.1 = inactive in single concentration testing, read-out: Anti-Angiogenesis) was over 10 µM, the IC50 (SW480; basal, SW480, read-out: Basal_Viability ATP SW480) was 1.26 µM and the IC50 (hGSK3b; kinase assay) was over 20 µM. It also gave an IC50 (hFLT3; kinase assay) of over 20 µM and an EC50 (INS-1E cells; S2 Table, module primary assay, 20 / 20.1 codes per legend, read-out: Insulin Secretion) of over 10 µM.
In the case of CCCCC1C(=O)N(c2ccccc2)N(c2ccc(O)cc2)C1=O (stereo not drawn) [Oxyphenbutazone], the EC50 (HeLa cells; Homo sapiens, IC50 / EC50) is reported as over 10 µM, the IC50 (DLD-1; Homo sapiens, DLD-1, basal, read-out: Basal_Viability ATP DLD-1) is reported as 5.87 µM and the EC50 (NCI-H716 cells; Homo sapiens, IC50 / EC50, NCI-H716, read-out: GLP 1 Secretion) is reported as over 10 µM. It also gave an EC50 ([1]; Mus musculus, C2C12, IC50 / EC50, C2C12 beta-catenin translocation, read-out: Wnt Pathway) of 4920 nM, an IC50 (hp70S6K1 (RPS6KB1)) of over 20 µM and an IC50 (hKDR) of over 20 µM. It also gave an IC50 [2, 7] of over 20 µM, an IC50 (hJAK2) of over 20 µM and an IC50 (HCT116; Homo sapiens, HCT-116, basal, read-out: Basal_Viability ATP HCT116) of 15.7 µM. The IC50 ([3]; Homo sapiens, IC50 / EC50, endothelial tube area, ADSC/ECFC co-culture, read-out: Anti-Angiogenesis) was 3.29 µM, the IC50 (SW480; Homo sapiens, SW480, basal, read-out: Basal_Viability ATP SW480) was 3.01 µM and the IC50 (hGSK3b) was over 20 µM. The IC50 (hFLT3) was over 20 µM and the EC50 (INS-1E cells; Rattus norvegicus, IC50 / EC50, INS-1E, read-out: Insulin Secretion) was over 10 µM.
CCCCCCCCCCCCCCCCCCNC(=O)OC1CCN(C(=O)OC[C@H](COC(=O)N(Cc2cccc[n+]2CC)C(=O)c2ccccc2OC)OC)CC1 [E-5880] showed an EC50 (HeLa cells; IC50 / EC50) of over 10 µM, an IC50 (DLD-1; [8]) of 3.28 µM and an EC50 (NCI-H716 cells; [9]) of 9.52 µM. For the same compound, the EC50 [1, 10] was over 10000 nM, the IC50 (hp70S6K1 (RPS6KB1)) was over 20 µM and the IC50 (hKDR) was over 20 µM. It also gave an IC50 [2, 11] of 4.42 µM, an IC50 (hJAK2) of over 20 µM and an IC50 (HCT116; [12]) of 4.11 µM. For the same compound, the IC50 [3, 13] was 1.5 µM, the IC50 (SW480; [14]) was 0.543 µM and the IC50 (hGSK3b) was over 20 µM. It also gave an IC50 (hFLT3) of over 20 µM and an EC50 (INS-1E cells; [15]) of over 20 µM.
For Cc1cc(O)c2ccccc2c1O [2-Methyl-1,4-naphthalenediol], the EC50 (HeLa cells; IC50 / EC50) was over 10 µM, the IC50 (DLD-1; [8]) was 10 µM and the EC50 (NCI-H716 cells; [9]) was over 10 µM. For the same compound, the EC50 [1, 10] was 1750 nM, the IC50 (hp70S6K1 (RPS6KB1)) was over 20 µM and the IC50 (hKDR) was 18.4 µM. For the same compound, the IC50 [2, 11] was 9.45 µM, the IC50 (hJAK2) was over 20 µM and the IC50 (HCT116; [12]) was 1.49 µM. The IC50 [3, 13] was 4.89 µM, the IC50 (SW480; [14]) was 7.08 µM and the IC50 (hGSK3b) was 19.1 µM. The IC50 (hFLT3) was over 20 µM and the EC50 (INS-1E cells; [15]) was over 10 µM.
